{
  "source": "patent US20100137375A1",
  "about": "“Emulsifiable Concentrate” (BASF SE, priority 2005, published 2010)",
  "key": {"[1]": {"tested_on": "Colorado potato beetle (Leptinotarsa decemlineata)", "test": "Field trial against Colorado potato beetle in potatoes", "type": "in vivo", "conditions": "60 g AI/HA", "experimental": "Performance of EC formulations according to the invention against the Colorado potato beetle (Leptinotarsa decemlineata) in potatoes\nThe trial was arranged in a randomized complete block design with three replications. Plots were 5 m long and one row (1 m) wide. Applications were conducted with a fournozzle row crop boom delivering side and overhead coverage, at 3-bar pressure and 400 l/ha. Numbers of larvae (L1/2) (L3/4) were recorded per plot at 2, 5 and 14 DAT (day after treatment) and a defoliation assessment was made at 14 DAT. Colorado potato beetle pressure was high resulting in complete defoliation in the controls at 19 DAT."}, "[2]": {"tested_on": "Southern armyworm (Spodoptera eridania), third instar", "test": "Lima bean leaf-dip test against Southern armyworm", "type": "in vivo", "experimental": "Performance of EC formulations according to the invention against Southern armyworm (Spodoptera eridania), third instar\nA stock solution of metaflumizone formulation is diluted into a container of water. Lima bean leaves are dipped into treatment solutions and allowed to air-dry. A single treated leaf is placed topside-up onto water-moistened filter paper in multiple plastic petri dishes. Seven larvae are placed onto each leaf and then each arena is sealed with petri dish covers. Each treatment replicated 4-fold (1 replicate=1 petri dish arena). Following treatment application, infested plants are held in the laboratory under fluorescent lighting and constant 26° C. Larval mortality/morbidity (i.e., number dead/number tested) is assessed at 5 days post-treatment. The mortality levels based on number of live larve."}, "[3]": {"conditions": "larval mortality at 5 days post-treatment, Log Dose-Probit analysis"}},
  "data": [
    {"smiles": "N#Cc1ccc(CC(=NNC(=O)Nc2ccc(OC(F)(F)F)cc2)c2cccc(C(F)(F)F)c2)cc1", "note": "[metaflumizone]", "values": [
      {"measurement": "Mean # of L1/L2 per plot", "setting": "[1]; 2 DAT", "value": ".3b"},
      {"measurement": "Mean # of L3/L4 per plot", "setting": "[1]; 2 DAT", "value": ".3b"},
      {"measurement": "Mean # of L1/L2 per plot", "setting": "[1]; 5 DAT", "value": 4, "unit": "b"},
      {"measurement": "Mean # of L3/L4 per plot", "setting": "[1]; 5 DAT", "value": 2, "unit": "b"},
      {"measurement": "% Defoliation", "setting": "[1]; 14 DAT", "value": 18, "unit": "a %"},
      {"measurement": "Mean # of L1/L2 per plot", "setting": "[1]; 14 DAT", "value": ".3a"},
      {"measurement": "Mean # of L3/L4 per plot", "setting": "[1]; 14 DAT", "value": 7, "unit": "ab"},
      {"measurement": "LC50", "setting": "[2]; [3]", "value": 1.50, "unit": "ppm"},
      {"measurement": "LC90", "setting": "[2]; [3]", "value": 7.70, "unit": "ppm"},
      {"measurement": "Biological Enhancement", "setting": "[2]; relative to metaflumizone dispersed in water (standard control)", "value": "1x (standard control)"}
    ]}
  ]
}
